Laboratory results reported in patent US20240262832A1, “SMALL MOLECULE MODULATORS OF GLUCOCEREBROSIDASE ACTIVITY AND USES THEREOF” (Vanqua Bio, Inc., priority 2021, published 2024).

Each compound was assayed against T1, GCase (Homo sapiens, UniProt P04062) (assay: activation of GCase in a live cell PFB assay in HELA cells).
T1 construct: endogenous in cells; host or cells: HeLa cells
T1 sequence (P04062 40-536): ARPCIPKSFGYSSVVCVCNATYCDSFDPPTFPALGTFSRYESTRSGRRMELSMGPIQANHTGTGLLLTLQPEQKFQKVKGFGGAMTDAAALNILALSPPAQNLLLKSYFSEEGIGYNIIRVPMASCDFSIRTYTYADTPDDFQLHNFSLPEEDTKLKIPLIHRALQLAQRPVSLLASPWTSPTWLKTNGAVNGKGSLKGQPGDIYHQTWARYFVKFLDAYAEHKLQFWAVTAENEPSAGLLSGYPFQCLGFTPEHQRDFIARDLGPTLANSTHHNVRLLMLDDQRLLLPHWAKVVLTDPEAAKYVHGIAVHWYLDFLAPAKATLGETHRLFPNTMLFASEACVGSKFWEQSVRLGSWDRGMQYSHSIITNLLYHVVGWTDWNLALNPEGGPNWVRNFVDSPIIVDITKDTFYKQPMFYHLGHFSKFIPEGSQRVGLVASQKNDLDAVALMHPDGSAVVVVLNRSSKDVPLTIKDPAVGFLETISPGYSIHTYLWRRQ
Format: cell-based

SMILES | EC50
Cn1c(-c2ccc(F)cn2)nc2ncc(N3C[C@@H]4[C@@H](COc5cc(F)cc(F)c5)[C@@H]4C3)nc21 [Compound 286, 6-((1R,5S,6r)-6-((3,5-Difluorophenoxy)methyl)-3-azabicyclo[3.1.0]hexan-3-yl)-2-(5-fluoropyridin-2-yl)-1-methyl-1H-imidazo[4,5-b]pyrazine] | > 100 µM
C[C@@H]1CCN(c2cnc3cnn(CC(F)F)c3n2)C[C@H]1COc1cccnc1C(F)(F)F [Compound 48d, 1-(2,2-difluoroethyl)-6-((3S,4R)-4-methyl-3-(((2-(trifluoromethyl)pyridin-3-yl)oxy)methyl)piperidin-1-yl)-1H-pyrazolo[3,4-b]pyrazine] | 10 to 50 µM
Cc1cnc2c(n1)c(C(=O)N1CCCC(COc3ccccc3C)C1)c(-c1ccccc1)n2C (stereo not drawn) [Compound 263, (2,5-dimethyl-6-phenyl-5H-pyrrolo[2,3-b]pyrazin-7-yl)(3-((o-tolyloxy)methyl)piperidin-1-yl)methanone] | 10 to 50 µM
CC1CCC(COc2cccnc2C(F)(F)F)CN1c1cnc2cnn(C3COC3)c2n1 (stereo not drawn) [Compound 117, 6-(2-Methyl-5-(((2-(trifluoromethyl)pyridin-3-yl)oxy)methyl)piperidin-1-yl)-1-(oxetan-3-yl)-1H-pyrazolo[3,4-b]pyrazine] | < 10 µM
C[C@H]1CCN(c2cnc3cnn(CC(F)F)c3n2)C[C@@H]1COc1cccnc1C(F)(F)F [Compound 48c, 1-(2,2-difluoroethyl)-6-((3R,4S)-4-methyl-3-(((2-(trifluoromethyl)pyridin-3-yl)oxy)methyl)piperidin-1-yl)-1H-pyrazolo[3,4-b]pyrazine] | 10 to 50 µM
O=C(N1CCC(Oc2ccc(C(F)(F)F)cn2)CC1)C1(c2ccccc2)CCOCC1 [Compound 381] | 10 to 50 µM
O=C(c1ccc2cc[nH]c2c1)N1C[C@@H]2[C@@H](COc3cccnc3C(F)(F)F)[C@@H]2C1 [Compound 109, 6-[(1R,5S,6R)-6-({[2-(Trifluoromethyl)pyridin-3-yl]oxy}methyl)-3-azabicyclo[3.1.0]hexane-3-carbonyl]-1H-indole] | 10 to 50 µM
COC1(C(=O)N2CCCC(COc3ccccc3)C2)CCCCCCC1 (stereo not drawn) [Compound 176] | 10 to 50 µM
CC(C)c1cc(C(=O)N2C[C@@H](C)C[C@H](COc3cccnc3C(F)(F)F)C2)[nH]n1 [Compound 234b, (3-Isopropyl-1H-pyrazol-5-yl)((3S,5S)-3-methyl-5-(((2-(trifluoromethyl)pyridin-3-yl)oxy)methyl)piperidin-1-yl)methanone] | 10 to 50 µM
CC(C)c1cc(C(=O)N2CC(COc3cccnc3C(F)(F)F)CCC2C)[nH]n1 (stereo not drawn) [Compound 231, (3-isopropyl-1H-pyrazol-5-yl)(2-methyl-5-(((2-(trifluoromethyl)pyridin-3-yl)oxy)methyl)piperidin-1-yl)methanone] | < 10 µM
Fc1cc(F)cc(OCC2CCCN(c3cnc4cnn(C5COC5)c4n3)C2)c1 (stereo not drawn) [Compound 88, 6-(3-((3,5-Difluorophenoxy)methyl)piperidin-1-yl)-1-(oxetan-3-yl)-1H-pyrazolo[3,4-b]pyrazine] | 10 to 50 µM
COCCNc1nc2cc(C(=O)N3CCC(O)(CO)CC3)ccc2n1C [Compound 486] | 10 to 50 µM
FC(F)Cn1ncc2ncc(N3CCCC(COc4nccnc4Cl)C3)nc21 (stereo not drawn) [Compound 69, 6-(3-(((3-Chloropyrazin-2-yl)oxy)methyl)piperidin-1-yl)-1-(2,2-difluoroethyl)-1H-pyrazolo[3,4-b]pyrazine] | > 100 µM
CC(C)Sc1ccc(CC(=O)N2CCC(Oc3ncccc3C#N)CC2)cc1 [Compound 369] | 10 to 50 µM
CC1CCC(COc2cccnc2C(F)(F)F)CN1c1cnc2cnn(CC(F)(F)F)c2n1 (stereo not drawn) [Compound 122, 6-(2-Methyl-5-(((2-(trifluoromethyl)pyridin-3-yl)oxy)methyl)piperidin-1-yl)-1-(2,2,2-trifluoroethyl)-1H-pyrazolo[3,4-b]pyrazine] | < 10 µM
CC1CCC(COc2cccnc2C(F)(F)F)CN1c1cnc2cnn(CC(F)F)c2n1 (stereo not drawn) [Compound 31, 1-(2,2-Difluoroethyl)-6-(2-methyl-5-(((2-(trifluoromethyl)pyridin-3-yl)oxy)methyl)piperidin-1-yl)-1H-pyrazolo[3,4-b]pyrazine] | < 10 µM
Cn1c(-c2ccccc2)cc2ncc(C(=O)N3CCCC(COc4cccnc4C(F)(F)F)C3)nc21 (stereo not drawn) [Compound 50, (5-Methyl-6-phenyl-5H-pyrrolo[2,3-b]pyrazin-3-yl)(3-(((2-(trifluoromethyl)pyridin-3-yl)oxy)methyl)piperidin-1-yl)methanone] | 10 to 50 µM
FC(F)Cn1ncc2ncc(N3CCCC(COc4cccnc4C(F)(F)F)C3)nc21 (stereo not drawn) [Compound 13, 3-({1-[1-(2,2-difluoroethyl)pyrazolo[3,4-b]pyrazin-6-yl]piperidin-3-yl}methoxy)-2-(trifluoromethyl)pyridine] | < 10 µM
O=C(c1ccc2cc[nH]c2c1)N1CCC(Oc2ccnc(C(F)(F)F)c2)CC1 [Compound 319, (1H-Indol-6-yl)(4-((2-(trifluoromethyl)pyridin-4-yl)oxy)piperidin-1-yl)methanone] | 10 to 50 µM
COc1ccccc1OCC1CCCN(C(=O)c2c(-c3ccccc3)n(C)c3nccnc23)C1 (stereo not drawn) [Compound 235, (3-((2-Methoxyphenoxy)methyl)piperidin-1-yl)(5-methyl-6-phenyl-5H-pyrrolo[2,3-b]pyrazin-7-yl)methanone] | 10 to 50 µM
FC1(COc2cccc(C(F)(F)F)n2)CCCN(c2cncc(-c3nncs3)n2)C1 (stereo not drawn) [Compound 65, 2-[3-Fluoro-3-({[6-(trifluoromethyl)pyridin-2-yl]oxy}methyl)piperidin-1-yl]-6-(1,3,4-thiadiazol-2-yl)pyrazine] | < 10 µM
CO[C@@H]1CCN(c2cnc3cnn(CC(F)F)c3n2)C[C@@H]1COc1cccnc1C(F)(F)F [Compound 298a, 1-(2,2-Difluoroethyl)-6-((3R,4R)-4-methoxy-3-(((2-(trifluoromethyl)pyridin-3-yl)oxy)methyl)piperidin-1-yl)-1H-pyrazolo[3,4-b]pyrazine] | 50 to 100 µM
C[C@@H]1CC[C@H](COc2ccc(C(F)(F)F)cn2)CN1c1cnc2cnn(CC(F)F)c2n1 [Compound 275, 1-(2,2-Difluoroethyl)-6-((2R,5S)-2-methyl-5-(((5-(trifluoromethyl)pyridin-2-yl)oxy)methyl)piperidin-1-yl)-1H-pyrazolo[3,4-b]pyrazine] | > 100 µM
CCn1c(=O)n(CC)c2nc(N3C[C@@H](C)C[C@H](COc4cccnc4C(F)(F)F)C3)cnc21 [Compound 288b, 1,3-Diethyl-5-((3S,5S)-3-methyl-5-(((2-(trifluoromethyl)pyridin-3-yl)oxy)methyl)piperidin-1-yl)-1,3-dihydro-2H-imidazo[4,5-b]pyrazin-2-one] | 10 to 50 µM

Now from value to compound:

EC50 | SMILES
10 to 50 µM | O=C(c1cnn(-c2ccccc2F)n1)N1CCCC(COc2ccccc2)C1 (stereo not drawn) [Compound 22, (2-(2-Fluorophenyl)-2H-1,2,3-triazol-4-yl)(3-(phenoxymethyl)piperidin-1-yl)methanone]
50 to 100 µM | CCC(C)(C)C(=O)N1CCC(COc2cccc(C(F)(F)F)n2)CC1 [Compound 350]
10 to 50 µM | COc1ccc(OCC2CCN(C(=O)c3c(C)cccc3OC)CC2)cc1 [Compound 481]
10 to 50 µM | CCn1ncnc1CN1CCC(COc2ccc(OC)cc2)CC1 [Compound 455]
10 to 50 µM | c1ccc(COC2CCN(c3cnc4ccccc4n3)CC2)cc1 [Compound 417, 2-[4-(Benzyloxy)piperidin-1-yl]quinoxaline]
10 to 50 µM | COc1ccc(CCCC(=O)N2CCCC(COc3ccccc3)C2)cc1 (stereo not drawn) [Compound 182]
< 10 µM | COc1ccc(OCC2CCN(Cc3c[nH]c(C#N)c3)CC2)cc1 [Compound 456]
10 to 50 µM | O=C(Cc1csc(-c2ccccc2)n1)N1CCC(OCCc2ccccc2)CC1 [Compound 336, 2-(2-Phenyl-1,3-thiazol-4-yl)-1-[4-(2-phenylethoxy)piperidin-1-yl]ethan-1-one]
10 to 50 µM | O=C(c1ccn(Cc2ccccc2)n1)N1CCCC(COc2ccccc2)C1 (stereo not drawn) [Compound 11]
< 10 µM | COc1ccc(OCC2CCN(Cc3cscn3)CC2)cc1 [Compound 477]
10 to 50 µM | O=C([C@@H]1C[C@H]1c1ccc(F)cc1)N1CCCC(COc2ccccc2)C1 (stereo partly drawn) [Compound 219]
10 to 50 µM | Cc1cc(C(=O)N2CCCC(COc3ccccc3)C2)c(C)n1C(C)C (stereo not drawn) [Compound 170]
10 to 50 µM | COc1ccc(OCC2CCN(CC(=O)Nc3cn(C)nc3C)CC2)cc1 [Compound 479]
50 to 100 µM | COc1ccc(OCC2CCN(C(=O)CC3CCOC3)CC2)cc1 (stereo not drawn) [Compound 472]
10 to 50 µM | COc1ccc(OCC2CCN(C(=O)c3cc(C(C)C)nc(N)n3)CC2)cc1 [Compound 461]
< 10 µM | CCCCCCC(C)C(=O)N1CCCC(COc2ccccc2)C1 (stereo not drawn) [Compound 132]
10 to 50 µM | COc1ccc(OCCCC(=O)N2CCCC(COc3ccccc3)C2)cc1 (stereo not drawn) [Compound 12]
10 to 50 µM | COc1ccc2c(c1)CCCC2CC(=O)N1CCCC(COc2ccccc2)C1 (stereo not drawn) [Compound 135]
10 to 50 µM | Cc1cccnc1OCC1CCN(C(=O)Cc2cn(C)c3ccccc23)CC1 [Compound 359]
50 to 100 µM | COc1ccc(OCC2CCN(c3cncc(N)n3)CC2)cc1 [Compound 431]
10 to 50 µM | c1ccc(OC2CCN(c3cnc4ccccc4n3)CC2)cc1 [Compound 414, 2-(4-Phenoxypiperidin-1-yl)quinoxaline]
